These results are taken from publication PMC12365925, “Structural insights into a bacterial terpene cyclase fused with haloacid Dehalogenase-like phosphatase” (Chemical Science, 2025).

The target of the experiment is T1, AsDMS (wild-type drimenol synthase) (Aquimarina spongiae, UniProt A0A1M6CXF0).
T1 construct: gene SAMN04488508_102320; wild-type, bifunctional N-terminal HAD and C-terminal TCbeta domains; dimer by gel filtration
In words: steady-state kinetics of dephosphorylation. Format: biochemical. The following applies: HAD domain phosphatase site, Mg2+-dependent.

SMILES strings stand for the structures.

T1 sequence (A0A1M6CXF0 entry or part of it): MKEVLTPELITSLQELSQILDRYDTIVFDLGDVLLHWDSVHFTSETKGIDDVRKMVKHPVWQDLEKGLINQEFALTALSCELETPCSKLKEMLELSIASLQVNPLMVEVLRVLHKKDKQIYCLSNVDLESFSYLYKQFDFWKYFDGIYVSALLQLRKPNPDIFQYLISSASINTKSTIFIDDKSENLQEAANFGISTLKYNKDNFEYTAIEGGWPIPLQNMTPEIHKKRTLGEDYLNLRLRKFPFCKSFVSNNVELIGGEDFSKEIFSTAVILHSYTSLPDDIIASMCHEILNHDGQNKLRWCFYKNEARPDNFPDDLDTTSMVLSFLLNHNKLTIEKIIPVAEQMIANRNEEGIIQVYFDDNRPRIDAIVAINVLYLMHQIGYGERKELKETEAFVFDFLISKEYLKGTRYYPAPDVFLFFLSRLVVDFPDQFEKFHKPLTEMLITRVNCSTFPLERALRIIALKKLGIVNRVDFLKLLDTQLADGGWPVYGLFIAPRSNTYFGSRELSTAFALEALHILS

In general, Km refers to the substrate concentration at which the rate is half of its maximum. Take `CC1=CC[C@H]2C(C)(C)CCC[C@]2(C)[C@H]1COP(=O)(O)O` [compound 3, drimenyl monophosphate]: the Km worked out at 5.81 ± 0.81 µM.
